Assay [1] addresses T1, CCR3 (Homo sapiens, UniProt P51677).
T1 construct: Human eosinophils were isolated from EDTA anticoagulated peripheral blood; endogenous in cells; host or cells: human peripheral blood eosinophils
T1 sequence (P51677 1-355): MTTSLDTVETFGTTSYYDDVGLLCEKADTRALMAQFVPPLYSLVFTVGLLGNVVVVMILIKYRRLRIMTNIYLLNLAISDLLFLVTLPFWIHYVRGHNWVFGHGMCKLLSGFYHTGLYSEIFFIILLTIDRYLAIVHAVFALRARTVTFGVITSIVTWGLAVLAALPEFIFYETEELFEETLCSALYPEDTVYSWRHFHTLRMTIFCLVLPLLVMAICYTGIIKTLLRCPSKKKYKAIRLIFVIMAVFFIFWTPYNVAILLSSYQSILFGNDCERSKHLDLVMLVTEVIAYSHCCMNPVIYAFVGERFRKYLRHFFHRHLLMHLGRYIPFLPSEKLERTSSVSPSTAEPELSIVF
In words: Human eosinophil chemotaxis (eotaxin mediated). It is filed as cell-based. The note with it: read-out: % inhibition at 3 nM eotaxin (1 uM compound), human eosinophils.

The target in assay [2] is T2, human H1 receptor (Homo sapiens, UniProt P35367).
T2 construct: purchased Euroscreen SA, Brussels, Belgium ES-390-M; host or cells: recombinant CHO-K1 cells (membranes)
T2 sequence (P35367 whole entry): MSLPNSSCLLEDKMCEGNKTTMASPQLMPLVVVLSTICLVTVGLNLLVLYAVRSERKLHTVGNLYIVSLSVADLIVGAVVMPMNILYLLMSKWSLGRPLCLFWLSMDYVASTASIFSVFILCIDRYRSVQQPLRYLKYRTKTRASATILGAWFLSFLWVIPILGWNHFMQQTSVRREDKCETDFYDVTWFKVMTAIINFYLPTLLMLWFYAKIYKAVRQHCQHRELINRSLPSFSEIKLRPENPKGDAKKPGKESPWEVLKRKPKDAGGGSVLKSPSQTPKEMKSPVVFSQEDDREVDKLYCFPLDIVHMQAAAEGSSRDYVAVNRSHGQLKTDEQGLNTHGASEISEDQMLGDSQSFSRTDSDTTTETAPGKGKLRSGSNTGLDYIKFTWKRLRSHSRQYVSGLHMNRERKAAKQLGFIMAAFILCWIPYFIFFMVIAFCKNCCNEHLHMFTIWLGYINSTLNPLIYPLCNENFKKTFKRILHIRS
Description: Histamine H1 receptor binding, competition displacement of [3H]-pyrilamine. The note with it: 1 nM [3H]-pyrilamine; membranes from recombinant CHO-K1 cells expressing the human H1 receptor; read-out: H1 pKi/[1328_S] (converted).

Structures can show the parent of a compound that is named as a salt.

In the case of `Cc1c(Cl)ccc(OC2CCN(C[C@H](O)CNC(=O)c3c[nH]c(=O)c4cc(S(C)(=O)=O)ccc34)CC2)c1Cl` [Example 215, N-{(2R)-3-[4-(2,4-Dichloro-3-methylphenoxy)piperidin-1-yl]-2-hydroxypropyl}-7-(methylsulfonyl)-1-oxo-1,2-dihydroisoquinoline-4-carboxamide acetate salt], the inhibition at 1 µM in assay [1] is 103%. Consider `N#Cc1ccc(OC2CCN(C[C@H](O)CNC(=O)c3c[nH]c(=O)c4ccccc34)CC2)cc1Cl` [Example 197, N-{(2R)-3-[4-(3-Chloro-4-cyanophenoxy)piperidin-1-yl]-2-hydroxypropyl}-1-oxo-1,2-dihydroisoquinoline-4-carboxamide], for which, in assay [1], the inhibition at 1 µM was 103%.

Take `CN(C[C@@H](O)CN1CCC(Oc2ccc(Cl)c(Cl)c2)CC1)C(=O)c1n[nH]c2ccccc12` [Example 53, N-{(2S)-3-[4-(3,4-Dichlorophenoxy)piperidin-1-yl]-2-hydroxypropyl}-N-methyl-1H-indazole-3-carboxamide]: in assay [1], the inhibition at 1 µM came out at 105%. The Ki in assay [2] is 7.94 nM. Consider `O=C(NC[C@@H](O)CN1CCC(Oc2ccc(Cl)c(Cl)c2)CC1)c1c[nH]c2ccccc12` [Example 47, N-{(2R)-3-[4-(3,4-Dichlorophenoxy)piperidin-1-yl]-2-hydroxypropyl}-1H-indole-3-carboxamide], for which the inhibition at 1 µM in assay [1] came out at 104%. In addition, the Ki in assay [2] was 7.94 nM. Take `O=C(NC[C@@H](O)CN1CCC(Oc2ccc(Cl)c(Cl)c2)CC1)[C@@H](O)c1ccccc1` [Example 58, (2S)-N-{(2R)-3-[4-(3,4-Dichlorophenoxy)piperidin-1-yl]-2-hydroxypropyl}-2-hyroxy-2-phenylethanamide]: the inhibition at 1 µM in assay [1] was 104%. Besides, the Ki in assay [2] is 63.1 nM. `CN(C[C@@H](O)CN1CCC(Oc2ccc(Cl)c(Cl)c2)CC1)C(=O)c1c[nH]c(=O)c2ccccc12` [Example 52, N-{(2S)-3-[4-(3,4-Dichlorophenoxy)piperidin-1-yl]-2-hydroxypropyl}-N-methyl-1-oxo-1,2-dihydroisoquinoline-4-carboxamide]: the inhibition at 1 µM in assay [1] was 95%. The Ki in assay [2] was 3.98 nM. With `O=C(NC[C@@H](O)CN1CCC(Oc2ccc(Cl)c(Cl)c2)CC1)c1c[nH]c(=O)c2ccccc12` [Example 10, N-{(2R)-3-[4-(3,4-Dichlorophenoxy)piperidin-1-yl]-2-hydroxypropyl}-1-oxo-1,2-dihydroisoquinoline-4-carboxamide], the inhibition at 1 µM in assay [1] is 106%. As for `CS(=O)(=O)c1ccc2c(C(=O)NC[C@@H](O)CN3CCC(Oc4ccc(C#N)c(Cl)c4)CC3)c[nH]c(=O)c2c1` [Example 206, N-{(2R)-3-[4-(3-Chloro-4-cyanophenoxy)piperidin-1-yl]-2-hydroxypropyl}-7-(methylsulfonyl)-1-oxo-1,2-dihydroisoquinoline-4-carboxamide], in assay [1], the inhibition at 1 µM came out at 99%. Regarding `Cc1c(Cl)ccc(OC2CCN(C[C@H](O)CNC(=O)c3c[nH]c(=O)c4ccccc34)CC2)c1Cl` [Example 17, N-{(2R)-3-[4-(2,4-Dichloro-3-methylphenoxy)piperidin-1-yl]-2-hydroxypropyl}-1-oxo-1,2-dihydroisoquinoline-4-carboxamide], in assay [1], the inhibition at 1 µM was determined as 103%. Besides, the Ki in assay [2] was 7.94 nM.

Regarding `O=C(NC[C@@H](O)CN1CCC(Oc2ccc(Cl)c(Cl)c2)CC1)n1c(=O)[nH]c2ccccc21` [Example 45, N-{3-[4-(3,4-Dichlorophenoxy)piperidin-1-yl]-2-hydroxypropyl}-2-oxo-2,3-dihydro-1H-benzimidazole-1-carboxamide], the inhibition at 1 µM in assay [1] turned out to be 102%. For `NC(=O)c1c(OC2CCN(C[C@H](O)CNC(=O)c3c[nH]c(=O)c4ccccc34)CC2)ccc(Cl)c1Cl` [Example 132], in assay [1], the inhibition at 1 µM turned out to be 101%. Turning to `Cc1cc(Cl)ccc1OC1CCN(C[C@@H](O)CNC(=O)c2c[nH]c(=O)c3ccccc23)CC1` [Example 186, N-{(2S)-3-[4-(4-Chloro-2-methylphenoxy)piperidin-1-yl]-2-hydroxypropyl}-1-oxo-1,2-dihydroisoquinoline-4-carboxamide acetate salt], in assay [1], the inhibition at 1 µM came to 104%. Besides, in assay [2], the Ki was 12.6 nM. Regarding `O=C(NC[C@@H](O)CN1CCC(Oc2ccc(Cl)c(Cl)c2)CC1)c1n[nH]c(=O)c2ccccc12` [Example 46, N-{(2R)-3-[4-(3,4-Dichlorophenoxy)piperidin-1-yl]-2-hydroxypropyl}-oxo-3,4-dihydrophthalazine-1-carboxamide], the inhibition at 1 µM in assay [1] came to 105%.

The inhibition is the drop in the measured response relative to a control, in per cent.

The record behind these values is patent US7709500B2, “Chemical compounds” (AstraZeneca AB, priority 2002, dated 2010).
